Measurements as given in ChEMBL document CHEMBL1201862, “PubChem BioAssay data set” (2004).
Activity calls are given as the source filed them.

How the values were obtained:
Phospholipase A2 = Phospholipase A2 (Homo sapiens, UniProt P04054); format: functional;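 note: confirmatory dose-response counterscreen on phospholipase A2, testing hits that came from an ultra-high-throughput screen for ATG4B inhibitors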
Cysteine protease ATG4B = biological target: T1, Cysteine protease ATG4B (Homo sapiens, UniProt Q9Y4P1); format: functional;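 note: Fluorescence-based dose-response confirmation assay measuring inhibition of ATG4B activity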
T1 sequence (Q9Y4P1 whole entry): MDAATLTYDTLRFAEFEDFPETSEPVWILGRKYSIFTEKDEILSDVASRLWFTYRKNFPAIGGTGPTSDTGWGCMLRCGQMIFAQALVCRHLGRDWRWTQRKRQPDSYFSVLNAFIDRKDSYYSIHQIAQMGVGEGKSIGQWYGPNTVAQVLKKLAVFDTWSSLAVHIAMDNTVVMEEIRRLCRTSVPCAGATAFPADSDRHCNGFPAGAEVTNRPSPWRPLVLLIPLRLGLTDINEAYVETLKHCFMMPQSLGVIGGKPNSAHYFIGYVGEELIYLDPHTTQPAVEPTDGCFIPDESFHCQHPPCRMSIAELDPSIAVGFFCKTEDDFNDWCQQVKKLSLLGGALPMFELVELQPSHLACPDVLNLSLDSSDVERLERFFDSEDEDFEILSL

[1] = biological target: T2, Sentrin-specific protease 8 (Homo sapiens, UniProt Q96LD8); format: functional;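 note: luminescence read-out of SENP8 inhibition, dose-response confirmation following an ultra-high-throughput screen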
T2 sequence (Q96LD8 whole entry): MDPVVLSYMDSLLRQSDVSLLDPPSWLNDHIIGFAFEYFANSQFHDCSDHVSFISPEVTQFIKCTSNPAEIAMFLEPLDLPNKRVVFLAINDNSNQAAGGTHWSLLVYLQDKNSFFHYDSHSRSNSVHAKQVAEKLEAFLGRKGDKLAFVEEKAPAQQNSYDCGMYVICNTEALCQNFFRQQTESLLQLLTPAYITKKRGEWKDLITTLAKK

Caspase-3 = biological target: T3, Caspase-3 (Homo sapiens, UniProt P42574); format: functional;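 note: Dose-response selectivity test against caspase-3 for candidate inhibitors of sentrin-specific proteases (SENPs)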
T3 sequence (P42574 whole entry): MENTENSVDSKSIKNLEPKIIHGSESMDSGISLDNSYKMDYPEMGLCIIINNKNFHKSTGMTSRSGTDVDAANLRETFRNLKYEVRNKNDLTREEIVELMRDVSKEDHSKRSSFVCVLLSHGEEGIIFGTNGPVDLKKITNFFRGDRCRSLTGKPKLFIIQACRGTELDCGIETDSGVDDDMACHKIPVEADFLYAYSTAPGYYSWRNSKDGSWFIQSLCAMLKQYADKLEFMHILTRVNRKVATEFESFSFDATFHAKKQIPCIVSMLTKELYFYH

[2] = biological target: T4, Sentrin-specific protease 7 (Homo sapiens, UniProt Q9BQF6); format: functional;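 note: Luminescence-based dose-response confirmation of ultra-high-throughput screening hits, measuring inhibition of SENP7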
T4 sequence (Q9BQF6 whole entry): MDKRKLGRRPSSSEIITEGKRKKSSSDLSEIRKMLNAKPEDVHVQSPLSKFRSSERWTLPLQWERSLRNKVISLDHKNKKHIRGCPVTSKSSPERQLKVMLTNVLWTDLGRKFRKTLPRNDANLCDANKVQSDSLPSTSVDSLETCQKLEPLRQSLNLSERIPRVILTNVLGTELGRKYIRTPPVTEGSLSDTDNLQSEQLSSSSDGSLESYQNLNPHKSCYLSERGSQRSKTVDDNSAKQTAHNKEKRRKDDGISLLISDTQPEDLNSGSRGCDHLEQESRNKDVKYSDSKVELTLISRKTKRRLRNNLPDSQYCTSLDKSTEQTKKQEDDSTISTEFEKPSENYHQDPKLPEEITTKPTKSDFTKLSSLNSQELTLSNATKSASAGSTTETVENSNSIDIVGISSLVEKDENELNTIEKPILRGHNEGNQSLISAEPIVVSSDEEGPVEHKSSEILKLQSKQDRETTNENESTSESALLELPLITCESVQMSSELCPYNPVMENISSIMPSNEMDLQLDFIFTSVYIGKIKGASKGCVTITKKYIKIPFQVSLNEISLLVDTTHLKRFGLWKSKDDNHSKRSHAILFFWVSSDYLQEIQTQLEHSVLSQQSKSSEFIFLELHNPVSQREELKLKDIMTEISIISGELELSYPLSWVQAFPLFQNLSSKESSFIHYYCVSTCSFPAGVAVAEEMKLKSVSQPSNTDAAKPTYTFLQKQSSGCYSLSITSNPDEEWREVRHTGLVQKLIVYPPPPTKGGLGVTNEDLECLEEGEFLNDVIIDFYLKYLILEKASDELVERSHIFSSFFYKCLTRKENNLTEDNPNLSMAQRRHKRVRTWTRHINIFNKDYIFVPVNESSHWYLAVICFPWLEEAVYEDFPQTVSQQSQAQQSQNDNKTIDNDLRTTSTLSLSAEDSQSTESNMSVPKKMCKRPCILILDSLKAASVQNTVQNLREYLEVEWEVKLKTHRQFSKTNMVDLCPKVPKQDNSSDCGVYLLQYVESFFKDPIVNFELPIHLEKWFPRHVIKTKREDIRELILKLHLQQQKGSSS

[3] = biological target: T5, Sentrin-specific protease 6 (Homo sapiens, UniProt Q9GZR1); format: functional;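 note: Luminescence-based dose-response confirmatory assay of SENP6 inhibition, following up an ultra-high-throughput screen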
T5 sequence (Q9GZR1 whole entry): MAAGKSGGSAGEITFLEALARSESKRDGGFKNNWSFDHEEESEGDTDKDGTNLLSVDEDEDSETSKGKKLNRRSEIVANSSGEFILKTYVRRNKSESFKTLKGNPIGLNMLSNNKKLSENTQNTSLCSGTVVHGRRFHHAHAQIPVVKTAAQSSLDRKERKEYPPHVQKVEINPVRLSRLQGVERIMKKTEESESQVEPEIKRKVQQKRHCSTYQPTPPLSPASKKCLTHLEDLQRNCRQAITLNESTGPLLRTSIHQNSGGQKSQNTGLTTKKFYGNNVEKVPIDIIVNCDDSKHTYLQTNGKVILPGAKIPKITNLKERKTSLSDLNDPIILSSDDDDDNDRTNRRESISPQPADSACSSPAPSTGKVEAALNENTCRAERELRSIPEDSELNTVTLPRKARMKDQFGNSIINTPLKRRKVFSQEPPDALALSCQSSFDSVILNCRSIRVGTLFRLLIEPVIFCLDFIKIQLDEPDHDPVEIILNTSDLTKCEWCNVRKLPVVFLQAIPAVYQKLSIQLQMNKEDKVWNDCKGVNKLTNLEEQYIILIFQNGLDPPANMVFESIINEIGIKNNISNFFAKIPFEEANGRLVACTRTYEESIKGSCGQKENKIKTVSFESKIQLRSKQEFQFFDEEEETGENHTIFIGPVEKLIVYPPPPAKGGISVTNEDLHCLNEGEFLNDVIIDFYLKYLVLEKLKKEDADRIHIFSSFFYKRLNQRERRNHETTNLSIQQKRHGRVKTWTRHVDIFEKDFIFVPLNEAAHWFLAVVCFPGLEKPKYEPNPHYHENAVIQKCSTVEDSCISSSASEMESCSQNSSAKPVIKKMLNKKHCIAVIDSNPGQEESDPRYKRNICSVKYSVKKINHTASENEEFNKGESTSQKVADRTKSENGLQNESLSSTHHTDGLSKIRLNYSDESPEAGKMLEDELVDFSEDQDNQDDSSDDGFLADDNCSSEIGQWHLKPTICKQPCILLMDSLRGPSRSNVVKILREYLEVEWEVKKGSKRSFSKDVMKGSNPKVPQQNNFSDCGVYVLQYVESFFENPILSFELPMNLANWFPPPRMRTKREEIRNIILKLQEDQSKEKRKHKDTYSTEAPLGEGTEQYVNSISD

HeLa = experiment: ATP-based viability loss in HeLa cells – cell-based, CellTiter-Glo luminescence, cherry-pick samples, cytotoxicity control for MITF activator project, dose response (AID 540259); format: functional; conditions: Homo sapiens
[4] = biological target: T6, Type-1 angiotensin II receptor (Homo sapiens, UniProt P30556); experiment: antagonism of angiotensin II type 1 receptor – cell-based, uHTS hits, selectivity assay for APJ receptor antagonist project, dose response (AID 463214); format: functional;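 note: antagonist potency against angiotensin II stimulated AT1 response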
T6 sequence (P30556 whole entry): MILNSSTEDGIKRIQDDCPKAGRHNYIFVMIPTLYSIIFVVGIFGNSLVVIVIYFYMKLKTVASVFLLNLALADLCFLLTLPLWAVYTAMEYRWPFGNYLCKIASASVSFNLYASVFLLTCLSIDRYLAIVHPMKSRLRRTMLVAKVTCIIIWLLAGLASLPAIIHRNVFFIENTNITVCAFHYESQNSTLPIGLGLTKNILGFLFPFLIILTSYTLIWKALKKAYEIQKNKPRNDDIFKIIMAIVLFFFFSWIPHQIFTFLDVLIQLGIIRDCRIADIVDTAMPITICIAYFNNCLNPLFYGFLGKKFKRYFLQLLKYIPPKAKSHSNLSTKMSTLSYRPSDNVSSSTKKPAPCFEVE

Beta-galactosidase = Beta-galactosidase (Escherichia coli, UniProt Q8VNN2); experiment: PubChem AID 485352; format: functional
[5] = biological target: T7, Endoribonuclease toxin MazF (Escherichia coli K-12, UniProt P0AE70); experiment: substrate-only fluorescence increase artefacts – biochemical, single-stranded RNase substrate, counter-screen for MazEF activator project, dose response (AID 588502); format: functional
T7 sequence (P0AE70 whole entry): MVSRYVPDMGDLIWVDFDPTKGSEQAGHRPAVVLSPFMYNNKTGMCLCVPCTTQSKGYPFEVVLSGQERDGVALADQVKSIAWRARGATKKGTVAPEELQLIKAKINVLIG

[6] = biological target: T7, Endoribonuclease toxin MazF; experiment: activation of MazEF endoribonuclease cleavage – biochemical, fluorescence, single-stranded RNA substrate, uHTS hits, dose response (AID 588481); format: functional
Cytochrome P450 2D6 = Cytochrome P450 2D6 (Homo sapiens, UniProt P10635);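 note: CYP2D6 member of a cytochrome P450 panel assay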
[7] = biological target: T8, Nuclear receptor subfamily 0 group B member 1 (Homo sapiens, UniProt P51843); experiment: Luminescence-based cell-based high throughput dose response assay for inhibitors of the orphan nuclear receptor subfamily 0, group B, member 1 (DAX1; NR0B1). [Related pubchem assays (depositor defined):AID504766, AID504790]; format: functional
T8 sequence (P51843 whole entry): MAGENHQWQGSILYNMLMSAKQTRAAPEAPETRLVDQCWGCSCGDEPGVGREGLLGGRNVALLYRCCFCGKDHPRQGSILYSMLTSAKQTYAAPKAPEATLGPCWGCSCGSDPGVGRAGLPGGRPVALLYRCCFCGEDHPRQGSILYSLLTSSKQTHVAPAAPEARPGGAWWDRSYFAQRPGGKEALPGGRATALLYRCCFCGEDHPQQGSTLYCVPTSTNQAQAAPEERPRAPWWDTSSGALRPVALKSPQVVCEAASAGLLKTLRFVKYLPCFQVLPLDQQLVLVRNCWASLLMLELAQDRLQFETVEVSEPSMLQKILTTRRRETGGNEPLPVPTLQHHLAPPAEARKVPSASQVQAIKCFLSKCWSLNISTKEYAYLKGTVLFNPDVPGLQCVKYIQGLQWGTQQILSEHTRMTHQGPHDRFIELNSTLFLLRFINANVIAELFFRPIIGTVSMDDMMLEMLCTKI

HEK293 = experiment: cells; format: functional, cell-based; conditions: Homo sapiens
Cytochrome P450 3A4 = Cytochrome P450 3A4 (Homo sapiens, UniProt P08684);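 note: CYP3A4 tested as one member of a cytochrome P450 panel screen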
Sequence of Cytochrome P450 3A4 (P08684 whole entry): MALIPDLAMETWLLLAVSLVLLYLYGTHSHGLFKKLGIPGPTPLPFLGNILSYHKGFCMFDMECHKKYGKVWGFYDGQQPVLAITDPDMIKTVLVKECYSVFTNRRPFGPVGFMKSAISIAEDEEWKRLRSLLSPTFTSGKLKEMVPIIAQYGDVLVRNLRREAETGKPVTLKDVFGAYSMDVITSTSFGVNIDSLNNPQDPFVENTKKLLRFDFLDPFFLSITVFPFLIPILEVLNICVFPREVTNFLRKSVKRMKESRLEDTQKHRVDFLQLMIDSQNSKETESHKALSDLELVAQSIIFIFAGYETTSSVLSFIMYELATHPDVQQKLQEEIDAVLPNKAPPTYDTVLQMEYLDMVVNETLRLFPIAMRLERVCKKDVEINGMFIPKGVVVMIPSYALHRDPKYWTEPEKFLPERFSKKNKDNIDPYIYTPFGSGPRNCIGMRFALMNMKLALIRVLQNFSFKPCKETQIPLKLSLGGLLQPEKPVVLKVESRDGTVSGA

Sequence of Phospholipase A2 (P04054 whole entry): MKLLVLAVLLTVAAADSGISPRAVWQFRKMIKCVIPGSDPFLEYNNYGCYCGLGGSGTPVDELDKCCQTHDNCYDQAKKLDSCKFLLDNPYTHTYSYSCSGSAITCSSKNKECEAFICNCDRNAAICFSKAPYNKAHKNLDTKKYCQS
Sequence of Beta-galactosidase (Q8VNN2 whole entry): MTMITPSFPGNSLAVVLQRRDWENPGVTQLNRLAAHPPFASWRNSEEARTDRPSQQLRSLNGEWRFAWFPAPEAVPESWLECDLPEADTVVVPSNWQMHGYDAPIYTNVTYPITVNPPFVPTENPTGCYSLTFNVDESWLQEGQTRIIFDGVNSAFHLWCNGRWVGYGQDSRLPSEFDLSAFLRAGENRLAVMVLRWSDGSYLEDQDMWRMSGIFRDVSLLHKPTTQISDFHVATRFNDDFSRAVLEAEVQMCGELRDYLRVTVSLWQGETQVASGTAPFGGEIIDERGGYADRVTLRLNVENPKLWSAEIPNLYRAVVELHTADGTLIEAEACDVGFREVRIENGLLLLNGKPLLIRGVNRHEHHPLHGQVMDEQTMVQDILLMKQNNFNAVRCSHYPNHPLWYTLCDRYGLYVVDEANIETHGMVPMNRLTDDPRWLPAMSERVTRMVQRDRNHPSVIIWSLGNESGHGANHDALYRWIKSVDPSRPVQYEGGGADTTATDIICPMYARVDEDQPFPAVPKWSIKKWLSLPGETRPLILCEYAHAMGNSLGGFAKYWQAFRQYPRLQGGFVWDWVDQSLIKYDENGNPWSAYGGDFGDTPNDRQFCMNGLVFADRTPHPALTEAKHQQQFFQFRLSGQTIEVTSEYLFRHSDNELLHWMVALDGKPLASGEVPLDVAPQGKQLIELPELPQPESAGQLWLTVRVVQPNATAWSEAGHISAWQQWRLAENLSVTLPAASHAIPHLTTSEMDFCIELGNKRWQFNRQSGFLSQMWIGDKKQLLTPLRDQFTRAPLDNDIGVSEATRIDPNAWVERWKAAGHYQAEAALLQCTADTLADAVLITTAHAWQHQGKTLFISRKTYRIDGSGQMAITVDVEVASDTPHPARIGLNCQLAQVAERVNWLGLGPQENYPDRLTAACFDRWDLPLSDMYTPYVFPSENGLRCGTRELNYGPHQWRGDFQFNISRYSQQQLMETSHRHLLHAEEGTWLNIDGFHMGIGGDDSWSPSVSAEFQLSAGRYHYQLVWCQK
Sequence of Cytochrome P450 2D6 (P10635 whole entry): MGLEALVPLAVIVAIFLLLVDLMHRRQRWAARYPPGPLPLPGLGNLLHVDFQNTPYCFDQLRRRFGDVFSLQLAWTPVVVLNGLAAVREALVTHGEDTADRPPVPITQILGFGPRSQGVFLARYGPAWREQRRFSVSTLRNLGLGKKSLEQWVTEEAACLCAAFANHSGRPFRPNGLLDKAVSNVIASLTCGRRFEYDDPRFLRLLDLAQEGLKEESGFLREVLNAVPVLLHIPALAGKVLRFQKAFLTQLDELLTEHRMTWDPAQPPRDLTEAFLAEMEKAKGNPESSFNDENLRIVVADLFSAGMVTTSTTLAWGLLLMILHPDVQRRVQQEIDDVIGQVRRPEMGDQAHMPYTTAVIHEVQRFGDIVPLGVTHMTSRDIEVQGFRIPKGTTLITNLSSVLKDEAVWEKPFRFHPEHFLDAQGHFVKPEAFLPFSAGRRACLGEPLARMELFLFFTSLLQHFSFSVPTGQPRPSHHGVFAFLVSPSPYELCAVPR

Cc1ccc(C(=O)NN=C(S)Nc2cccc(Cl)c2Cl)cc1[N+](=O)[O-]
IC50 (Phospholipase A2): 13.3 µM (active) | IC50 (Cysteine protease ATG4B): 20.8 µM (inactive)

CCC(C)N(C(=O)COc1ccc(Br)cc1C=O)C1CCS(=O)(=O)C1 (stereo not given)
IC50 (Phospholipase A2): 8.26 µM (active) | IC50 (Cysteine protease ATG4B): 10.1 µM (active)

Cc1ccc(C)c(NC(=O)c2cc(-c3cc(C)ccc3O)[nH]n2)c1
IC50 [1]: > 100 µM (inactive) | IC50 (Caspase-3): 22.3 µM (active) | IC50 [2]: 5.17 µM (active) | IC50 [3]: > 100 µM (inactive) | AC50 (HeLa): 41.9 µM (active)

FC(F)(F)c1cnc(NNC(=S)Nc2cccnc2)c(Cl)c1
IC50 [4]: 15.1 µM (active) | EC50 (Beta-galactosidase): > 40 µM (inactive)

Cc1ccc(C(=O)COC(=O)CNC(=O)c2ccc(Br)o2)cc1[N+](=O)[O-]
IC50 [4]: > 40 µM (not active) | EC50 (Beta-galactosidase): > 40 µM (inactive)

COc1ccc(C)cc1Nc1n[n+](-c2ccccc2)c(-c2cc([N+](=O)[O-])cc(OC)c2O)s1
EC50 [5]: 58.4 µM (inactive) | EC50 [6]: 23.5 µM (inactive)

CCCC(=O)NC(=S)Nc1cccc(Cl)c1N1CCCCC1
IC50 (Phospholipase A2): 6.52 µM (active) | IC50 (Cysteine protease ATG4B): 9.11 µM (active)

O=C(COC(=O)c1cnccn1)c1ccc(Cl)c([N+](=O)[O-])c1
IC50 [4]: 12.5 µM (active) | EC50 (Beta-galactosidase): > 40 µM (inactive)

Cc1cc(C)c(NC(=O)C2CCCN2C)c(C)c1 (stereo not given)
AC50 (Cytochrome P450 2D6): 28.2 µM (inconclusive) | IC50 [7]: > 67.3 µM (inactive) | IC50 (HEK293): > 67.3 µM (inactive) | AC50 (Cytochrome P450 3A4): 25.1 µM (inconclusive)

Cc1noc(C)c1S(=O)(=O)N1CCN(S(=O)(=O)c2ccccc2C#N)CC1
IC50 [7]: > 67.5 µM (inactive) | IC50 (HEK293): > 67.5 µM (inactive)
